Laboratory results taken from US20060069132A1, “Azolecarboxamide herbicides” (priority 2004, published 2006).

How the values were obtained:
[1] = system: Surinam grass; assay: Test B pre-/postemergence herbicide test; format: in vivo, Urochloa decumbens
Procedure, shortened: (§1)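 Visual rating, 0 (no effect) to 100 (complete control), versus untreated controls after 13–15 d in greenhouse. Pre- and postemergence applications (postemergence plants 2–18 cm, 1–4 leaves); flooded paddy arm at 2-leaf stage. Compounds in non-phytotoxic solvent plus surfactant.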

[2] = system: morningglory; assay: Test B pre-/postemergence herbicide test; format: in vivo, Ipomoea coccinea
Procedure, shortened: (§2)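 Seeds were planted and treated preemergence with compounds formulated in a non-phytotoxic solvent mixture containing surfactant, while plants at the 1- to 4-leaf stage (2 to 18 cm) received postemergence sprays. Flooded paddy plants were grown to the 2-leaf stage. After 13 to 15 days in a greenhouse, injury was visually rated 0–100 against untreated controls.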

[3] = system: ducksalad; assay: Test B flooded paddy test; format: in vivo, Heteranthera limosa; settings: 1000 g ai/ha, visual rating, scale 0 to 100 (0 no effect, 100 complete control), 13 to 15 days
Procedure, shortened: (§3)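 Postemergence plants were sprayed with formulated test chemicals at 2 to 18 cm height (1- to 4-leaf stage); paddy species were grown to the 2-leaf stage. After 13 to 15 days in a greenhouse, injury was rated visually against untreated controls on a 0–100 scale (0 = no effect, 100 = complete control).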

[4] = system: rice; assay: Test B pre-/postemergence herbicide test; format: in vivo, Oryza sativa; settings: preemergence, 125 g ai/ha; 0 to 100 scale, 0 is no effect, 100 is complete control
Procedure, shortened: as §1

[5] = system: wild oat; assay: Test B postemergence herbicide test; format: in vivo, Avena fatua; settings: scale 0 (no effect) to 100 (complete control)
Procedure, shortened: (§4)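 Greenhouse test; postemergence application to plants at 1–4 leaves (2–18 cm); paddy species at 2 leaves; evaluated visually vs controls at 13–15 days; scale 0–100 (100 = complete control).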

[6] = system: barnyardgrass; assay: Test B pre-/postemergence herbicide test; format: in vivo, Echinochloa crus-galli
Procedure, shortened: as §2

[7] = system: large crabgrass; assay: Test B pre-/postemergence herbicide test; format: in vivo, Digitaria sanguinalis
Procedure, shortened: as §1

[8] = system: rice; assay: Test B flooded paddy test; format: in vivo, Oryza sativa; settings: 1000 g ai/ha, visual rating, scale 0 to 100 (0 no effect, 100 complete control), 13 to 15 days
Procedure, shortened: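 Read-out: visual comparison with controls, scored 0 to 100, where 100 means complete control and 0 no effect. Formulated chemicals were applied postemergence to plants 2–18 cm tall (1- to 4-leaf), or to flooded-paddy plants at the 2-leaf stage, then held 13 to 15 days under glass.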

[9] = system: barnyardgrass; assay: Test B flooded paddy test; format: in vivo, Echinochloa crus-galli; settings: 1000 g ai/ha, visual rating, scale 0 to 100 (0 no effect, 100 complete control), 13 to 15 days
Procedure, shortened: as §3

[10] = system: pigweed; assay: Test B pre-/postemergence herbicide test; format: in vivo, Amaranthus retroflexus
Procedure, shortened: as §1

[11] = system: wheat; assay: Test B postemergence herbicide test; format: in vivo, Triticum aestivum; design: key to Wheat plant response rating: 0 = no effect, 100 = complete control; settings: scale 0 (no effect) to 100 (complete control)
Procedure, shortened: as §4

[12] = system: blackgrass; assay: Test B postemergence herbicide test; format: in vivo, Alopecurus myosuroides; settings: scale 0 (no effect) to 100 (complete control)
Procedure, shortened: as §3

[13] = system: cocklebur; assay: Test B pre-/postemergence herbicide test; format: in vivo, Xanthium strumarium
Procedure, shortened: as §2

[14] = system: small flower umbrella sedge; assay: Test B flooded paddy test; format: in vivo, Cyperus difformis; settings: 1000 g ai/ha, visual rating, scale 0 to 100 (0 no effect, 100 complete control), 13 to 15 days
Procedure, shortened: as §3

[15] = system: velvetleaf; assay: Test B pre-/postemergence herbicide test; format: in vivo, Abutilon theophrasti
Procedure, shortened: as §1

[16] = system: lambsquarters; assay: Test B pre-/postemergence herbicide test; format: in vivo, Chenopodium album
Procedure, shortened: as §1

[17] = system: giant foxtail; assay: Test B pre-/postemergence herbicide test; format: in vivo, Setaria faberi
Procedure, shortened: as §1

[18] = system: corn; assay: Test B pre-/postemergence herbicide test; format: in vivo, Zea mays
Procedure, shortened: as §1

[19] = 500 g ai/ha, visual rating 0-100, 0 no effect, 100 complete control, preemergence
[20] = Postemergence, 500 g ai/ha, visual rating after 13 to 15 days, scale 0 (no effect) to 100 (complete control)
[21] = postemergence, 125 g ai/ha, visual rating, scale 0 (no effect) to 100 (complete control)
[22] = preemergence, 125 g ai/ha, 0 to 100 scale, 0 is no effect, 100 is complete control
[23] = Postemergence, 500 g ai/ha, visual rating after 13 to 15 days
[24] = postemergence, 125 g ai/ha, visual rating

SMILES: CCCCn1nc(C(C)(C)C)cc1C(=O)Nc1cccc(C(C)=NO)c1 [Compound 119]
- Plant response rating, Surinam Grass [1, 19]: 10
- Plant response rating, Surinam Grass [1, 20]: 10
- Surinam Grass plant response rating [1, 21]: 10
- Plant response rating, Surinam Grass [1, 22]: 0
- Plant response rating, Morningglory [2, 19]: 10
- Plant response rating, Morningglory [2, 20]: 40
- Morningglory plant response rating [2, 21]: 0
- Plant response rating, Morningglory [2, 22]: 0
- Ducksalad plant response rating [3]: 0
- Plant response rating, Rice [4]: 0
- Plant response rating, Oat, Wild [5, 23]: 20
- Oat, Wild plant response rating [5, 24]: 10
- Plant response rating, Barnyardgrass [6, 19]: 10
- Plant response rating, Barnyardgrass [6, 20]: 10
- Barnyardgrass plant response rating [6, 21]: 0
- Plant response rating, Barnyardgrass [6, 22]: 0
- Plant response rating, Crabgrass, Large [7, 19]: 80
- Plant response rating, Crabgrass, Large [7, 20]: 20
- Crabgrass, Large plant response rating [7, 21]: 20
- Plant response rating, Crabgrass, Large [7, 22]: 20
- Rice plant response rating [8]: 0
- Barnyardgrass plant response rating [9]: 0
- Plant response rating, Pigweed [10, 19]: 0
- Plant response rating, Pigweed [10, 20]: 30
- Pigweed plant response rating [10, 21]: 0
- Plant response rating, Pigweed [10, 22]: 0
- Plant response rating, Wheat [11, 23]: 0
- Wheat plant response rating [11, 24]: 0
- Plant response rating, Blackgrass [12, 23]: 10
- Blackgrass plant response rating [12, 24]: 0
- Plant response rating, Cocklebur [13, 19]: 0
- Plant response rating, Cocklebur [13, 20]: 60
- Cocklebur plant response rating [13, 21]: 0
- Plant response rating, Cocklebur [13, 22]: 0
- Sedge, Umbrella plant response rating [14]: 0
- Plant response rating, Velvetleaf [15, 19]: 10
- Plant response rating, Velvetleaf [15, 20]: 50
- Velvetleaf plant response rating [15, 21]: 0
- Plant response rating, Velvetleaf [15, 22]: 0
- Plant response rating, Lambsquarters [16, 19]: 0
- Plant response rating, Lambsquarters [16, 20]: 60
- Lambsquarters plant response rating [16, 21]: 0
- Plant response rating, Lambsquarters [16, 22]: 0
- Plant response rating, Foxtail, Giant [17, 19]: 0
- Plant response rating, Foxtail, Giant [17, 20]: 10
- Foxtail, Giant plant response rating [17, 21]: 10
- Plant response rating, Foxtail, Giant [17, 22]: 0
- Plant response rating, Corn [18, 19]: 0
- Plant response rating, Corn [18, 20]: 30
- Corn plant response rating [18, 21]: 10
- Plant response rating, Corn [18, 22]: 0
